# According to the supplement of paper PMC10307832:
# Assays:
# Assay in all cases: relative viability (nuclei count vs DMSO), 5 days (fraction); higher = more cells survive
# [1] = test system: A-427
# Procedure, shortened: (§1)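 Nuclei were stained with Hoechst during a one-step fixation (final 0.05% Triton X-100, 1% formaldehyde, 1 ug/ml Hoechst) carried out 5 days after dosing, then counted on 4× images. The cells, lung cancer lines in 1536-well plates, had been dosed by pin tool the day after seeding with one drug alone or a fixed anchor-drug dose plus five library-drug doses (not always all listed) in √10 steps. Relative viability is the nuclei count in treated wells divided by that in vehicle wells, and each value is the median of duplicate plates.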
# [2] = test system: NCI-H460
# Procedure, shortened: as §1
# [3] = test system: SK-LU-1
# Procedure, shortened: as §1
# [4] = test system: NCI-H1792
# Procedure, shortened: as §1
# [5] = test system: NCI-H1944
# Procedure, shortened: as §1
# [6] = test system: NCI-H1915
# Procedure, shortened: as §1
# [7] = test system: UMC-11
# Procedure, shortened: as §1
# [8] = test system: NCI-H2170
# Procedure, shortened: as §1
# [9] = test system: NCI-H358
# Procedure, shortened: as §1
# [10] = test system: LC-2-ad
# Procedure, shortened: as §1
# [11] = test system: SW 900
# Procedure, shortened: as §1
# [12] = test system: NCI-H2085
# Procedure, shortened: as §1
# [13] = test system: LXF-289
# Procedure, shortened: as §1
# [14] = test system: HOP-62
# Procedure, shortened: as §1
# [15] = test system: NCI-H1666
# Procedure, shortened: as §1
# [16] = test system: EPLC-272H
# Procedure, shortened: as §1
# [17] = test system: HCC-78
# Procedure, shortened: as §1
# [18] = test system: HCC-366
# Procedure, shortened: as §1
# [19] = test system: NCI-H2009
# Procedure, shortened: as §1
# [20] = test system: NCI-H1793
# Procedure, shortened: as §1
# [21] = test system: COR-L 105
# Procedure, shortened: as §1
# [22] = test system: LU99A
# Procedure, shortened: as §1
smiles,measurement,setting,value
O=c1cc(N2CCOCC2)oc2c(-c3cccc4c3sc3ccccc34)cccc12 + COc1cccc2cc(-c3nc([C@H]4CC[C@H](C(=O)O)CC4)n4ncnc(N)c34)[nH]c12 [OSI-027] (partner 0.5 µM),relative viability,[1]; first compound 0.01 µM,0.514
same,relative viability,[1]; first compound 0.03162 µM,0.469
same,relative viability,[1]; first compound 0.1 µM,0.337
same,relative viability,[1]; first compound 0.3162 µM,0.484
same,relative viability,[1]; first compound 1 µM,0.587
same,relative viability,[2]; first compound 0.01 µM,0.659
same,relative viability,[2]; first compound 0.03162 µM,0.717
same,relative viability,[2]; first compound 0.1 µM,0.683
same,relative viability,[2]; first compound 0.3162 µM,0.68
same,relative viability,[2]; first compound 1 µM,0.653
same,relative viability,[3]; first compound 0.01 µM,0.35
same,relative viability,[3]; first compound 0.03162 µM,0.393
same,relative viability,[3]; first compound 0.1 µM,0.355
same,relative viability,[3]; first compound 0.3162 µM,0.398
same,relative viability,[3]; first compound 1 µM,0.415
same,relative viability,[4]; first compound 0.01 µM,0.717
same,relative viability,[4]; first compound 0.03162 µM,0.716
same,relative viability,[4]; first compound 0.1 µM,0.653
same,relative viability,[4]; first compound 0.3162 µM,0.752
same,relative viability,[4]; first compound 1 µM,0.779
same,relative viability,[5]; first compound 0.01 µM,0.443
same,relative viability,[5]; first compound 0.03162 µM,0.436
same,relative viability,[5]; first compound 0.1 µM,0.429
same,relative viability,[5]; first compound 0.3162 µM,0.44
same,relative viability,[5]; first compound 1 µM,0.391
same,relative viability,[6]; first compound 0.01 µM,0.672
same,relative viability,[6]; first compound 0.03162 µM,0.796
same,relative viability,[6]; first compound 0.1 µM,0.663
same,relative viability,[6]; first compound 0.3162 µM,0.647
same,relative viability,[6]; first compound 1 µM,0.65
same,relative viability,[7]; first compound 0.01 µM,0.472
same,relative viability,[7]; first compound 0.03162 µM,0.507
same,relative viability,[7]; first compound 0.1 µM,0.496
same,relative viability,[7]; first compound 0.3162 µM,0.526
same,relative viability,[7]; first compound 1 µM,0.45
same,relative viability,[8]; first compound 0.01 µM,0.716
same,relative viability,[8]; first compound 0.03162 µM,0.845
same,relative viability,[8]; first compound 0.1 µM,0.716
same,relative viability,[8]; first compound 0.3162 µM,0.716
same,relative viability,[8]; first compound 1 µM,0.716
same,relative viability,[9]; first compound 0.01 µM,0.83
same,relative viability,[9]; first compound 0.03162 µM,0.878
same,relative viability,[9]; first compound 0.1 µM,0.881
same,relative viability,[9]; first compound 0.3162 µM,0.844
same,relative viability,[9]; first compound 1 µM,0.781
same,relative viability,[10]; first compound 0.01 µM,0.903
same,relative viability,[10]; first compound 0.03162 µM,0.993
same,relative viability,[10]; first compound 0.1 µM,0.877
same,relative viability,[10]; first compound 0.3162 µM,0.915
same,relative viability,[10]; first compound 1 µM,0.785
same,relative viability,[11]; first compound 0.01 µM,0.565
same,relative viability,[11]; first compound 0.03162 µM,0.572
same,relative viability,[11]; first compound 0.1 µM,0.311
same,relative viability,[11]; first compound 0.3162 µM,0.69
same,relative viability,[11]; first compound 1 µM,0.545
same,relative viability,[12]; first compound 0.01 µM,0.946
same,relative viability,[12]; first compound 0.03162 µM,0.768
same,relative viability,[12]; first compound 0.1 µM,0.756
same,relative viability,[12]; first compound 0.3162 µM,0.827
same,relative viability,[12]; first compound 1 µM,0.8
same,relative viability,[13]; first compound 0.01 µM,0.807
same,relative viability,[13]; first compound 0.03162 µM,0.778
same,relative viability,[13]; first compound 0.1 µM,0.755
same,relative viability,[13]; first compound 0.3162 µM,0.825
same,relative viability,[13]; first compound 1 µM,0.81
same,relative viability,[14]; first compound 0.01 µM,0.787
same,relative viability,[14]; first compound 0.03162 µM,0.842
same,relative viability,[14]; first compound 0.1 µM,0.821
same,relative viability,[14]; first compound 0.3162 µM,0.81
same,relative viability,[14]; first compound 1 µM,0.804
same,relative viability,[15]; first compound 0.01 µM,0.864
same,relative viability,[15]; first compound 0.03162 µM,0.922
same,relative viability,[15]; first compound 0.1 µM,0.847
same,relative viability,[15]; first compound 0.3162 µM,0.839
same,relative viability,[15]; first compound 1 µM,0.79
same,relative viability,[16]; first compound 0.01 µM,0.33
same,relative viability,[16]; first compound 0.03162 µM,0.296
same,relative viability,[16]; first compound 0.3162 µM,0.332
same,relative viability,[16]; first compound 1 µM,0.314
same,relative viability,[17]; first compound 0.01 µM,0.369
same,relative viability,[17]; first compound 0.03162 µM,0.362
same,relative viability,[17]; first compound 0.1 µM,0.297
same,relative viability,[17]; first compound 0.3162 µM,0.347
same,relative viability,[17]; first compound 1 µM,0.342
same,relative viability,[18]; first compound 0.01 µM,1
same,relative viability,[18]; first compound 0.03162 µM,1.38
same,relative viability,[18]; first compound 0.1 µM,1.12
same,relative viability,[18]; first compound 0.3162 µM,0.928
same,relative viability,[18]; first compound 1 µM,0.955
same,relative viability,[19]; first compound 0.01 µM,0.697
same,relative viability,[19]; first compound 0.03162 µM,0.791
same,relative viability,[19]; first compound 0.1 µM,0.664
same,relative viability,[19]; first compound 0.3162 µM,0.65
same,relative viability,[19]; first compound 1 µM,0.654
same,relative viability,[20]; first compound 0.01 µM,0.33
same,relative viability,[20]; first compound 0.1 µM,0.287
same,relative viability,[20]; first compound 0.3162 µM,0.251
same,relative viability,[20]; first compound 1 µM,0.247
same,relative viability,[21]; first compound 0.01 µM,0.668
same,relative viability,[21]; first compound 0.03162 µM,0.825
same,relative viability,[21]; first compound 0.1 µM,0.656
same,relative viability,[21]; first compound 0.3162 µM,0.786
same,relative viability,[21]; first compound 1 µM,0.553
same,relative viability,[22]; first compound 0.01 µM,0.277
same,relative viability,[22]; first compound 0.03162 µM,0.337
same,relative viability,[22]; first compound 0.1 µM,0.323
same,relative viability,[22]; first compound 0.3162 µM,0.311
same,relative viability,[22]; first compound 1 µM,0.347
